Source: ChEMBL document CHEMBL1201862, “PubChem BioAssay data set” (2004)
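Cells were grown in 96-well plates and exposed to each compound for 48 hours at five concentrations; endpoints were interpolated linearly between bracketing concentrations, or set to the highest concentration if not reached. At the GI50, growth is halved.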 Calls of active or inactive are those of the source. No stated cut-off is given here; in the data, active = GI50 up to about 1.1 µM and inactive = higher.

Columns and labels:
Test in all cases: NCI tumour cell line growth inhibition, 48 h
A498 = system: A498
SF-295 = system: SF-295
KM12 = system: KM12
T47D = system: T47D
SN12C = system: SN12C
DU-145 = system: DU-145
RPMI-8226 = system: RPMI-8226
Malme-3M = system: Malme-3M
NCI-H23 = system: NCI-H23
M14 = system: M14
786-0 = system: 786-0
MDA-N = system: MDA-N
OVCAR-4 = system: OVCAR-4
HCT-116 = system: HCT-116
UO-31 = system: UO-31
HOP-92 = system: HOP-92
CAKI-1 = system: CAKI-1
SNB-75 = system: SNB-75
MOLT-4 = system: MOLT-4
SR = system: SR

| SMILES | GI50 (A498) | GI50 (SF-295) | GI50 (KM12) | GI50 (T47D) | GI50 (SN12C) | GI50 (DU-145) | GI50 (RPMI-8226) | GI50 (Malme-3M) | GI50 (NCI-H23) | GI50 (M14) | GI50 (786-0) | GI50 (MDA-N) | GI50 (OVCAR-4) | GI50 (HCT-116) | GI50 (UO-31) | GI50 (HOP-92) | GI50 (CAKI-1) | GI50 (SNB-75) | GI50 (MOLT-4) | GI50 (SR) |
| --- | --- | --- | --- | --- | --- | --- | --- | --- | --- | --- | --- | --- | --- | --- | --- | --- | --- | --- | --- | --- |
| C/C=C(\C)c1cc(=O)c2c(C)cc3c(c2o1)C(=O)c1c(O)c(C2CC(C)(N(C)C)C(OC(C)=O)C(C)O2)cc(C2CC(N(C)C)C(O)C(C)O2)c1C3=O (configuration not stated) | 1.48 µM (inactive) | 1.06 µM (active) | 1.12 µM (active) | 1.53 µM (inactive) | 0.817 µM (active) | 0.258 µM (active) | 1.08 µM (active) | 0.352 µM (active) | 0.971 µM (active) | 0.748 µM (active) | 0.358 µM (active) | 1.18 µM (inactive) | 1.48 µM (inactive) | 0.185 µM (active) | 0.948 µM (active) | 1.45 µM (inactive) | 0.265 µM (active) | 1.64 µM (inactive) | 0.372 µM (active) | – |
| CCN1C(=O)C(=C/C=C/c2ccc(N(CC)CC)cc2)C(=O)N(CC)C1=S | – | > 100 µM (inactive) | > 100 µM (inactive) | > 100 µM (inactive) | > 100 µM (inactive) | > 100 µM (inactive) | > 100 µM (inactive) | – | > 100 µM (inactive) | > 100 µM (inactive) | > 100 µM (inactive) | 74.8 µM (inactive) | > 100 µM (inactive) | > 100 µM (inactive) | > 100 µM (inactive) | > 100 µM (inactive) | > 100 µM (inactive) | – | 33.9 µM (inactive) | – |
| CN(C(=O)CC(=O)CP(=O)(c1ccccc1)c1ccccc1)c1ccccc1 | – | > 100 µM (inactive) | > 100 µM (inactive) | > 100 µM (inactive) | > 100 µM (inactive) | > 100 µM (inactive) | > 100 µM (inactive) | – | > 100 µM (inactive) | > 100 µM (inactive) | > 100 µM (inactive) | > 100 µM (inactive) | > 100 µM (inactive) | > 100 µM (inactive) | > 100 µM (inactive) | – | > 100 µM (inactive) | > 100 µM (inactive) | > 100 µM (inactive) | > 100 µM (inactive) |
| CCCCCCCCCCCCCCCCCCNc1nc(=O)n(C2CC(O)C(COP(=O)(O)OCC(COP(=O)(O)OC3C(CO)OC(n4ccc(N)nc4=O)C3O)OCCCCCCCCCCCCCCCCCC)O2)cc1F (configuration not stated) | 36.7 µM (inactive) | > 100 µM (inactive) | > 100 µM (inactive) | 80.9 µM (inactive) | > 100 µM (inactive) | 34.8 µM (inactive) | 11.8 µM (inactive) | 41.4 µM (inactive) | 32 µM (inactive) | 31.7 µM (inactive) | 14.8 µM (inactive) | > 100 µM (inactive) | 87.9 µM (inactive) | 27.5 µM (inactive) | 28.8 µM (inactive) | > 100 µM (inactive) | 46.3 µM (inactive) | 80.5 µM (inactive) | 0.675 µM (active) | – |
| CC1(C)N=C(N)N=C(N)N1c1cccc(C(=O)Nc2ccc(S(=O)(=O)F)cc2)c1 | > 100 µM (inactive) | > 100 µM (inactive) | > 100 µM (inactive) | > 100 µM (inactive) | > 100 µM (inactive) | > 100 µM (inactive) | > 100 µM (inactive) | > 100 µM (inactive) | > 100 µM (inactive) | > 100 µM (inactive) | > 100 µM (inactive) | > 100 µM (inactive) | > 100 µM (inactive) | > 100 µM (inactive) | > 100 µM (inactive) | > 100 µM (inactive) | > 100 µM (inactive) | > 100 µM (inactive) | > 100 µM (inactive) | – |
| NC(=O)C1=C(O)C[C@@H]2CC3Cc4cccc(O)c4C(=O)C3=C(O)[C@]2(O)C1=O (some centres not stated) | 2.74 µM (inactive) | 1.85 µM (inactive) | 9.55 µM (inactive) | 2.63 µM (inactive) | 3.01 µM (inactive) | 3.16 µM (inactive) | 0.755 µM (active) | 2 µM (inactive) | 1.85 µM (inactive) | 1.84 µM (inactive) | 3.24 µM (inactive) | 2.9 µM (inactive) | 10.7 µM (inactive) | 1.8 µM (inactive) | 2.9 µM (inactive) | 1.67 µM (inactive) | 10.6 µM (inactive) | 2.43 µM (inactive) | 1.61 µM (inactive) | – |
| C=CCN1CCC(OC(=O)C(O)(/C=C\CC)C2CCCC2)CC1 (configuration not stated) | > 100 µM (inactive) | > 100 µM (inactive) | – | > 100 µM (inactive) | > 100 µM (inactive) | > 100 µM (inactive) | > 100 µM (inactive) | > 100 µM (inactive) | 8.71 µM (inactive) | > 100 µM (inactive) | > 100 µM (inactive) | > 100 µM (inactive) | > 100 µM (inactive) | > 100 µM (inactive) | > 100 µM (inactive) | 38.2 µM (inactive) | > 100 µM (inactive) | > 100 µM (inactive) | > 100 µM (inactive) | – |
